Measured values from ChEMBL document CHEMBL3046132, “Design and synthesis of thienopyridines as novel templates for acetylcholinesterase inhibitors” (2013).

Tested on: Rattus norvegicus
Assay: In vivo inhibition of AchE in Wistar albino Rattus norvegicus (rat) brain at 10 mg/kg, po after 30 min relative to untreated control
Format: functional
Settings: 0.5 h

Row | Compound | inhibition in vivo at 10 mg/kg [%]
1 | Nc1c2c(nc3ccccc13)CCCC2 [TACRINE] | 54.9
2 | Cc1sc2nc3c(c(NCCCCN4C(=O)c5ccccc5C4=O)c2c1C)CCCC3 | 55.6
3 | O=C1c2ccccc2C(=O)N1CCNCCCNc1c2c(nc3sc4c(c13)CCCC4)CCCC2 | 43.9
4 | O=C(CCCCC1CCSS1)NCCCNc1c2c(nc3sc4c(c13)CCCC4)CCCC2 (stereo not drawn) | 56.7
5 | O=C1c2ccccc2C(=O)N1CCCNc1c2c(nc3sc4c(c13)CCCC4)CCCC2 | 42.7
6 | Cc1sc2nc3c(c(NCCCCNC(=O)CCCCC4CCSS4)c2c1C)CCCC3 (stereo not drawn) | 42.9
7 | Cc1sc2nc3c(c(NCCCNc4c5c(nc6sc(C)c(C)c46)CCCC5)c2c1C)CCCC3 | 25.1
8 | Cc1sc2nc3c(c(NCCCCNc4c5c(nc6sc(C)c(C)c46)CCCC5)c2c1C)CCCC3 | 41.5
9 | O=C1c2ccccc2C(=O)N1CCNCCCCNc1c2c(nc3sc4c(c13)CCCC4)CCCC2 | 45
10 | C(CCNc1c2c(nc3sc4c(c13)CCCC4)CCCC2)CNc1c2c(nc3sc4c(c13)CCCC4)CCCC2 | 35.7
11 | Cc1sc2nc3c(c(NCCCN4C(=O)c5ccccc5C4=O)c2c1C)CCCC3 | 46.2
12 | O=C1c2ccccc2C(=O)N1CCCCNc1c2c(nc3sc4c(c13)CCCC4)CCCC2 | 29.8
13 | O=C(CCCCC1CCSS1)NCCCCNc1c2c(nc3sc4c(c13)CCCC4)CCCC2 (stereo not drawn) | 21.4
